Values quoted from earlier work, collected in patent US12605385B2, “Methotrexate formulation” (Therakind Ltd., priority 2014, dated 2026).
Read-outs that look alike come from different tables or passages of the source.

Columns and labels:
[1] = 50% v/v propylene glycol: water formulation

For CN(Cc1cnc2nc(N)nc(N)c2n1)c1ccc(C(=O)N[C@@H](CCC(=O)O)C(=O)O)cc1 [Methotrexate, 4-amino-N^10-methylpteroylglutamic acid], the solubility (in alkaline solution) is given as “freely soluble”, the solubility (in hydrochloric acid) is given as “slightly soluble” and the solubility (in water, alcohol, chloroform and ether) is given as “almost insoluble”. For the same compound, the “drug solubility on increasing the vehicle pH to 6.34” value [1] was “further increased” and the “solubility at pH 5.29 compared with pH 4” value [1] was “significantly higher”.
